From patent publication US9371265B2, “Compositions and methods related to inhibitors of JAK kinase” (EP PHARMA, INC., priority 2012, dated 2016) come the findings set out here.

The nature of data set [1]: Oral pharmacokinetics in rats (plasma, LC-MS/MS). Format: in vivo, Sprague Dawley rats. As to conditions: single oral dose of 200 mg/kg. As to the method:
(§1) FIGS. 9A-9B Pharmacokinetics and efficacy of EP009 in vivo. (A) Sprague Dawley rats were administered EP009 by oral gavage (200 mg/kg) and pharmacokinetics measured by analysis of plasma concentrations at indicated time points. Values represent mean concentrations, while error bars represent the standard deviation (n=5). (B) Therapeutic study of EP009 in SU-DHL-1 model in SCID/NOD mice.
EP009 (200 mg/kg) was administered orally to Sprague Dawley rats (Texas Animal Specialties) of ˜200 g weight (n=5) after an overnight fast. Blood (˜200 μl) was drawn at 0.5, 1, 2, 4, 8 and 24 hours after dosing and plasma was collected and snap-frozen in liquid nitrogen. EP009 plasma concentrations were determined by a liquid chromatography tandem mass spectrometry (LC-MS/MS) system. This system included a HPLC (Shimadzu Scientific Corporation) with an ACE C18 column (50×2.1 mm, 5 um) and an API-4000 (triple-quadruple) mass spectrometer (ABSciex, Inc) with an electrospray ionization source. A positive multiple reaction monitoring (MRM) scan was applied. The mobile phase A and B used in this study were 0.1% formic acid in 5 mM ammonium acetate and 0.1% formic acid in 100% acetonitrile. Plasma samples (50 μL) were mixed with 50 μL of blank plasma and 300 μL of internal standard solution (Verapamil, 20 ng/mL in 100% acetonitrile). After vortexing for 1 min and centrifuging for 5 min at 16,000×g, 300 μL supernatants were analyzed by LC-MS/MS. The limit of quantitation was 1 ng/mL of EP009 in plasma and the calibration range was from 1 to 2000 ng/mL.

The test system of a further data set is SU-DHL-1 tumors. Description: SU-DHL-1 xenograft human lymphoma model. Format: in vivo, SCID/NOD mice. As to the method: as §1
Severe combined immunodeficient/nonobese diabetic (SCID/NOD) mice were purchased from Charles River (Milan, Italy). The SU-DHL-1 model, 28 which was established by subcutaneous injection of 1×10^7 SU-DHL-1 cells in the left flank of SCID/NOD mice, served as the xenograft human lymphoma model. Tumor masses were measured with caliper in two perpendicular diameters in a blind fashion to determine the longest diameter. Progressively growing masses >1 mm in diameter were regarded as tumors. Mice were divided into three groups (n=8/group) and treatments initiated when tumors were established and measurable (day 16 after tumor challenge). Control mice received oral gavage of saline (placebo), while treated mice received EP009 orally (100 or 200 mg/kg) three times per week for six weeks. The study was terminated when tumors began to show signs of ulcerations and measurements became inaccurate (day 58). All animal were maintained in the animal facility of the Molecular Biotechnology Center, University of Turin and treated in accordance with the European guidelines.
(In general: A xenograft is tissue or cells of one species grown in another, often human tumour cells in immunodeficient mice.)

The target in the next data set is RAF1 (Homo sapiens, UniProt P04049). Description: Kinase panel: RAF1. It counts as biochemical. As to conditions: 10 μM EP009. How it is done: Achieving JAK3 selectivity remains a significant challenge in the development of new small molecules for the treatment of cancer and immune-derived diseases. As such, the inventors employed cell-based screening assays of small-molecule libraries based upon the chemical scaffold of the established JAK3 inhibitor NC1153 (Stepkowski et al., J Immunol. (2005), 175(7):4236-4246) EP009 (FIG. 2A) was selected as a lead compound due to improved intrinsic stability (>95% purity in various solvents at 37° C. for 24 hours; FIG. 3) and high-degree of JAK3 selectivity. To test JAK3 versus JAK2 specificity of EP009, the IL-2/JAK3-dependent Kit225, and IL-3/JAK2-dependent BaF/3 cell lines were used. Kit225 and BaF/3 cells growing in the presence of IL-2 or IL-3, respectively, were treated with ascending concentrations of EP009 for 12 hours and cellular JAK3 and JAK2 tyrosine phosphorylation levels detected by Western blot analysis (FIGS. 2B and 2C). Following densitometric analysis, EP009 was determined to dose-dependently reduce IL-2-mediated JAK3 tyrosine phosphorylation with a cellular 50% inhibitory concentration (IC50) between 10 and 20 μM (FIG. 2B). […] To globally evaluate specificity, the inhibitory activity of EP009 was measured against a panel of protein kinases distributed throughout the kinome using the scanEDGE profiling service (KINOMEscan). […]

Several values for one entry are separate records, joined by “and”; a condition that tells them apart may be missing. Identical values can stand only once.

Chain of RAF1 (P04049 whole entry): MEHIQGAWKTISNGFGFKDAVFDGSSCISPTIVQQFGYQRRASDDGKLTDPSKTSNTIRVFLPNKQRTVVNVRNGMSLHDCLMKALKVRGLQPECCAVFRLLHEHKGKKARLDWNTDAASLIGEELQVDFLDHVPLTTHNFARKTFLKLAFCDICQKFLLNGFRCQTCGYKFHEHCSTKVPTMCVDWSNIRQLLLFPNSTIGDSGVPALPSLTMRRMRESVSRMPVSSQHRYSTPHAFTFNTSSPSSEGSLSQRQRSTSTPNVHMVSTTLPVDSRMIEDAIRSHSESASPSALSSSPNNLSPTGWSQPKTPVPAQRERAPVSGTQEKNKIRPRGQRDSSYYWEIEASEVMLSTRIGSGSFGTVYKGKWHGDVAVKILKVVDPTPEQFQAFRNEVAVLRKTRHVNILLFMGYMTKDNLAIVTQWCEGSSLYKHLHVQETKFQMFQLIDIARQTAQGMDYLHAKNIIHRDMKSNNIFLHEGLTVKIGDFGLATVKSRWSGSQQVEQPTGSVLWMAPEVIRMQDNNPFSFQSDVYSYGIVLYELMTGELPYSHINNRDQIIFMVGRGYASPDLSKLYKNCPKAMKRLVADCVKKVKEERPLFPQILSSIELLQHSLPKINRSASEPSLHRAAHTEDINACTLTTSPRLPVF

As to `C=C1CCCCCCCCCC(CO)C1=O` (centres unmarked) [EP009, 2-(Hydroxymethyl)-12-methylenecyclododecanone], the AUC(0-t) in data set [1] (Sprague Dawley, rat, plasma, read-out: area under the concentration-time curve (AUC-t)) is 2110 ng·h/mL and 6.1 µM·h. In addition, in data set [1] (Sprague Dawley, rat, plasma, read-out: half-life (t1/2) (converted)), the half-life is 1 h. In addition, the Cmax in data set [1] (Sprague Dawley, rat, plasma, read-out: peak plasma concentration (Cmax)) was 2000 ng/mL and 5.74 µM. The “plasma levels eight hours after dosing” value in data set [1] is on record as “declined to the limit of detection”. Moreover, the tumor growth inhibition with SU-DHL-1 tumors (oral 100 mg/kg three times per week, p<0.05) came out at 37.5%; with SU-DHL-1 tumors (oral 200 mg/kg three times per week, p<0.01), 51%. In the data set on SU-DHL-1 tumors (oral 100 and 200 mg/kg), the body weight changes entry is given as “No significant body weight changes”. In addition, on RAF1, the “Kinase Activity (% of Control)” value is listed as 97 % of Control.
